Laboratory results reported in the NIST ThermoML archive (doi:10.1016/j.jct.2018.02.018).
± gives the expanded uncertainty stated by the source.

Tests used:
[1] = 100 kPa, Liquid; for speed of sound: Frequency=3 MHz, Single path-length method; for mass density: Vibrating tube method
[2] = refractive index (Na D-line) (dimensionless); details: 100 kPa, Liquid, Standard Abbe refractometry
[3] = xn = mol fraction of the nth substance listed; details: 100 kPa, Liquid, x1 = 1; for speed of sound: Frequency=3 MHz, Single path-length method; for mass density: Vibrating tube method
[4] = refractive index (Na D-line) (dimensionless); xn = mol fraction of the nth substance listed; details: 100 kPa, Liquid, Standard Abbe refractometry, x1 = 1

CN(C)CCOCCO [2-(2-dimethylaminoethoxy)ethanol]
speed of sound ([1]; 293.15 K): 1403.6 ± 2.4 m/s
mass density ([1]; 293.15 K): 954 ± 4 kg/m3
speed of sound ([1]; 298.15 K): 1386.7 ± 2.4 m/s
mass density ([1]; 298.15 K): 950 ± 4 kg/m3
speed of sound ([1]; 303.15 K): 1369.9 ± 2.4 m/s
mass density ([1]; 303.15 K): 946 ± 4 kg/m3
speed of sound ([1]; 313.15 K): 1336.8 ± 2.4 m/s
mass density ([1]; 313.15 K): 938 ± 4 kg/m3
speed of sound ([1]; 323.15 K): 1303.9 ± 2.4 m/s
mass density ([1]; 323.15 K): 930 ± 4 kg/m3
refractive index ([2]; 293.15 K): 1.442 ± 0.006
refractive index ([2]; 298.15 K): 1.44 ± 0.006
refractive index ([2]; 303.15 K): 1.438 ± 0.006
refractive index ([2]; 313.15 K): 1.435 ± 0.006
refractive index ([2]; 323.15 K): 1.431 ± 0.006

NCCO [2-aminoethan-1-ol]
speed of sound ([1]; 293.15 K): 1734.2 ± 1.7 m/s
mass density ([1]; 293.15 K): 1016 ± 4 kg/m3
speed of sound ([1]; 298.15 K): 1718.3 ± 1.7 m/s
mass density ([1]; 298.15 K): 1012 ± 4 kg/m3
speed of sound ([1]; 303.15 K): 1702.2 ± 1.7 m/s
mass density ([1]; 303.15 K): 1008 ± 4 kg/m3
speed of sound ([1]; 313.15 K): 1669.4 ± 1.7 m/s
mass density ([1]; 313.15 K): 1000 ± 4 kg/m3
speed of sound ([1]; 323.15 K): 1637.3 ± 1.7 m/s
mass density ([1]; 323.15 K): 992 ± 4 kg/m3
refractive index ([2]; 293.15 K): 1.455 ± 0.006
refractive index ([2]; 298.15 K): 1.453 ± 0.006
refractive index ([2]; 303.15 K): 1.451 ± 0.006
refractive index ([2]; 313.15 K): 1.447 ± 0.006
refractive index ([2]; 323.15 K): 1.443 ± 0.006

CN(C)CCCO [3-dimethylamino-1-propanol]
speed of sound ([1]; 293.15 K): 1395.8 ± 1.7 m/s
mass density ([1]; 293.15 K): 885 ± 4 kg/m3
speed of sound ([1]; 298.15 K): 1377.3 ± 1.7 m/s
mass density ([1]; 298.15 K): 881 ± 4 kg/m3
speed of sound ([1]; 303.15 K): 1358.8 ± 1.7 m/s
mass density ([1]; 303.15 K): 877 ± 4 kg/m3
speed of sound ([1]; 313.15 K): 1322.1 ± 1.7 m/s
mass density ([1]; 313.15 K): 869 ± 4 kg/m3
speed of sound ([1]; 323.15 K): 1285.7 ± 1.7 m/s
mass density ([1]; 323.15 K): 860 ± 4 kg/m3
refractive index ([2]; 293.15 K): 1.437 ± 0.006
refractive index ([2]; 298.15 K): 1.435 ± 0.006
refractive index ([2]; 303.15 K): 1.433 ± 0.006
refractive index ([2]; 313.15 K): 1.429 ± 0.006
refractive index ([2]; 323.15 K): 1.425 ± 0.006

NCc1ccccc1 [benzylamine]
speed of sound ([1]; 293.15 K): 1579.7 ± 1.7 m/s
mass density ([1]; 293.15 K): 983 ± 4 kg/m3
speed of sound ([1]; 298.15 K): 1560.1 ± 1.7 m/s
mass density ([1]; 298.15 K): 978 ± 4 kg/m3
speed of sound ([1]; 303.15 K): 1540.2 ± 1.7 m/s
mass density ([1]; 303.15 K): 974 ± 4 kg/m3
speed of sound ([1]; 313.15 K): 1500 ± 1.7 m/s
mass density ([1]; 313.15 K): 965 ± 4 kg/m3
speed of sound ([1]; 323.15 K): 1461.1 ± 1.7 m/s
mass density ([1]; 323.15 K): 957 ± 4 kg/m3
refractive index ([2]; 293.15 K): 1.544 ± 0.006
refractive index ([2]; 298.15 K): 1.542 ± 0.006
refractive index ([2]; 303.15 K): 1.539 ± 0.006
refractive index ([2]; 313.15 K): 1.534 ± 0.006
refractive index ([2]; 323.15 K): 1.529 ± 0.006

C[S+](C)[O-] [dimethyl sulfoxide]
speed of sound ([1]; 293.15 K): 1503.9 ± 1.5 m/s
mass density ([1]; 293.15 K): 1100 ± 4 kg/m3
speed of sound ([1]; 298.15 K): 1486.8 ± 1.5 m/s
mass density ([1]; 298.15 K): 1095 ± 4 kg/m3
speed of sound ([1]; 303.15 K): 1469.9 ± 1.5 m/s
mass density ([1]; 303.15 K): 1090 ± 4 kg/m3
speed of sound ([1]; 313.15 K): 1436.3 ± 1.5 m/s
mass density ([1]; 313.15 K): 1080 ± 4 kg/m3
speed of sound ([1]; 323.15 K): 1403 ± 1.5 m/s
mass density ([1]; 323.15 K): 1070 ± 4 kg/m3
refractive index ([2]; 293.15 K): 1.479 ± 0.006
refractive index ([2]; 298.15 K): 1.477 ± 0.006
refractive index ([2]; 303.15 K): 1.475 ± 0.006
refractive index ([2]; 313.15 K): 1.47 ± 0.006
refractive index ([2]; 323.15 K): 1.466 ± 0.006

C[S+](C)[O-] [dimethyl sulfoxide] + CN(C)CCCO
speed of sound ([3]; 293.15 K): 1503.9 ± 1.5 m/s
mass density ([3]; 293.15 K): 1100 ± 4 kg/m3
speed of sound ([3]; 303.15 K): 1469.9 ± 1.5 m/s
mass density ([3]; 303.15 K): 1090 ± 4 kg/m3
speed of sound ([3]; 313.15 K): 1436.3 ± 1.5 m/s
mass density ([3]; 313.15 K): 1080 ± 4 kg/m3
speed of sound ([3]; 323.15 K): 1403 ± 1.5 m/s
mass density ([3]; 323.15 K): 1070 ± 4 kg/m3
refractive index ([4]; 293.15 K): 1.479 ± 0.006
refractive index ([4]; 303.15 K): 1.475 ± 0.006
refractive index ([4]; 313.15 K): 1.47 ± 0.006
refractive index ([4]; 323.15 K): 1.466 ± 0.006

C[S+](C)[O-] [dimethyl sulfoxide] + CN(C)CCOCCO
speed of sound ([3]; 293.15 K): 1503.9 ± 1.5 m/s
mass density ([3]; 293.15 K): 1100 ± 4 kg/m3
speed of sound ([3]; 303.15 K): 1469.9 ± 1.5 m/s
mass density ([3]; 303.15 K): 1090 ± 4 kg/m3
speed of sound ([3]; 313.15 K): 1436.3 ± 1.5 m/s
mass density ([3]; 313.15 K): 1080 ± 4 kg/m3
speed of sound ([3]; 323.15 K): 1403 ± 1.5 m/s
mass density ([3]; 323.15 K): 1070 ± 4 kg/m3
refractive index ([4]; 293.15 K): 1.479 ± 0.006
refractive index ([4]; 303.15 K): 1.475 ± 0.006
refractive index ([4]; 313.15 K): 1.47 ± 0.006
refractive index ([4]; 323.15 K): 1.466 ± 0.006

C[S+](C)[O-] [dimethyl sulfoxide] + NCCO
speed of sound ([3]; 293.15 K): 1503.9 ± 1.5 m/s
mass density ([3]; 293.15 K): 1100 ± 4 kg/m3
speed of sound ([3]; 303.15 K): 1469.9 ± 1.5 m/s
mass density ([3]; 303.15 K): 1090 ± 4 kg/m3
speed of sound ([3]; 313.15 K): 1436.3 ± 1.5 m/s
mass density ([3]; 313.15 K): 1080 ± 4 kg/m3
speed of sound ([3]; 323.15 K): 1403 ± 1.5 m/s
mass density ([3]; 323.15 K): 1070 ± 4 kg/m3
refractive index ([4]; 293.15 K): 1.479 ± 0.006
refractive index ([4]; 303.15 K): 1.475 ± 0.006
refractive index ([4]; 313.15 K): 1.47 ± 0.006
refractive index ([4]; 323.15 K): 1.466 ± 0.006

C[S+](C)[O-] [dimethyl sulfoxide] + NCc1ccccc1
speed of sound ([3]; 293.15 K): 1503.9 ± 1.5 m/s
mass density ([3]; 293.15 K): 1100 ± 4 kg/m3
speed of sound ([3]; 303.15 K): 1469.9 ± 1.5 m/s
mass density ([3]; 303.15 K): 1090 ± 4 kg/m3
speed of sound ([3]; 313.15 K): 1436.3 ± 1.5 m/s
mass density ([3]; 313.15 K): 1080 ± 4 kg/m3
speed of sound ([3]; 323.15 K): 1403 ± 1.5 m/s
mass density ([3]; 323.15 K): 1070 ± 4 kg/m3
refractive index ([4]; 293.15 K): 1.479 ± 0.006
refractive index ([4]; 303.15 K): 1.475 ± 0.006
refractive index ([4]; 313.15 K): 1.47 ± 0.006
refractive index ([4]; 323.15 K): 1.466 ± 0.006
